Experimental data reported in patent US10697960B2, “CXCR4 and ROBO1 expression as markers for autoimmune diabetes” (BOARD OF SUPERVISORS OR LOUISANA STATE UNIVERSITY AND …, priority 2012, dated 2020).
“Also recorded” adds a separate entry of the source.

Columns and labels:
[1] = tested on: NOD/ShiLtJ T cells on TNFα-activated MS1 islet endothelial cells; experiment: Parallel plate flow chamber T cell adhesion assay with SDF-1 peptide mimetic; format: cell-based, mouse; settings: MS1 cells treated 4 hours with 10 ng/ml TNFα; 150 mPa
Description: Hydrodynamic flow chamber assays were performed as otherwise described in C. Sharp et al. (2008). Briefly, T cells isolated as described above were labeled with CellTracker Green (C7025; Life Technologies, Carlsbad, Calif., USA), rinsed, and resuspended at a concentration of 2×10^6 cells/ml in phenol red-free Hanks' balanced salt solution (HBSS). The cells were placed in a beaker that had been previously coated with Sigmacote (Sigma-Aldrich), kept at 37° C., and stirred at 60 rev/min. A flow chamber insert and gasket with a 0.5 cm flow width and 250 μm thickness (GlycoTech, Gaithersburg, Md., USA) were used with 35 mm cell culture dishes containing confluent MS1 cell cultures to form a parallel plate flow chamber. To activate endothelial cells, MS1 cells were treated for 4 to 6 hours at 37° C. with 10 ng/ml recombinant mouse TNFα (T7539; Sigma).
For the SDF-1 peptide mimetic T cell adhesion assay, MS1 cells were rinsed with HBSS and treated for 10 minutes with an SDF-1 peptide mimetic (AYWKENKEQ with two branched lysines as a linker between the two motifs, SEQ ID NO 1) at […]. This peptide was a linearized version of a cyclized SDF-1 analogue reported by Tudan et al., “C-terminal cyclization of an SDF-1 small peptide analogue dramatically increases receptor affinity and activation of CXCR4 receptor,” J. Med. Chem., vol. 45, pp. 2024-31 (2002). T cells were pumped through polypropylene tubing by a syringe pump (KD Scientific, Holliston, Mass., USA) across the endothelial monolayer at a physiological shear stress of 150 mPa. Real-time digital video images (minimum 28 frames/second) were captured with an epifluorescence microscope (TE-2000 Eclipse; Nikon, Tokyo, Japan) and digital camera (Model C4742-95-12ER: Hamamatsu Photonics, Hamamatsu, Japan). Simple PCI software (Hamamatsu Photonics) was used to analyze the video and to measure T cell rolling velocities. Cells were considered firmly adherent if they remained stationary for 10 seconds within the field of view. A minimum of three videos per plate and four plates per condition were used for analysis.
We examined whether a linear SDF-1 peptide mimetic containing the receptor-binding site could replicate the effect of full length SDF-1 in blocking adhesion of T cells to activated endothelium. MS1 cells were treated for 4 hours with 10 ng/ml TNFα, followed by treatment for 10 minutes with an SDF-1 peptide mimetic at 200, 1000, or 5000 ng/ml. Cells were then tested in a parallel plate flow chamber cell adhesion assay. Fluorescently labeled T cells obtained from NOD/ShiLtJ mice flowed over the endothelial monolayers at 150 mPa. […] Leucocyte adhesion videos were analyzed to calculate T cell rolling velocity and to determine whether the decrease in firm adhesion was due to a decreased number of rolling cells.

[2] = tested on: NOD/ShiLtJ T cells on MS1 endothelial cells; experiment: Anti-ROBO1 T cell detachment assay on MS1 endothelial monolayers under step-wise shear stress; format: cell-based, mouse; settings: TNFα stimulation of MS1 cells versus unstimulated control
Description: T cell detachment assays were performed as otherwise described in C. Sharp et al. (2008). T cells were injected into the tubing via an inlet port upstream of the flow chamber at a concentration of 2×10^6 cells/ml and allowed to firmly adhere under static conditions for 15 minutes. Next, shear stress was initiated and increased in a step-wise manner every 30 seconds as follows: 35, 56, 91, 224, 504, and 980 mPa. The assay was recorded by video, which was analyzed to determine the percentage of cells detached at the end of each shear stress interval. For the anti-ROBO1 detachment assay, MS1 cells were treated for […] at 37° C. with TNFα as described above and then with 100 ng/ml recombinant mouse SDF-1α (460-SD; R&D Systems). T cells were pre-treated for 30 minutes at 37° C. with 20 μg/ml ROBO1 blocking antibody (GT15144; Neuromics, Edina, Minn., USA) or isotype control (GT15900; Neuromics).
Having established that T cell levels of ROBO1 differ between C57BL/6J and NOD/ShiLtJ mice, we investigated whether SDF-1-mediated firm adhesion defects were dependent on ROBO1-SLIT2 binding. We used a parallel plate flow chamber detachment assay. NOD/ShiLtJ T cells were first allowed to statically adhere to islet endothelial cell monolayers. […]

Question: For TNFα, which “TNFα-induced adhesion versus untreated endothelium” value [1] is on record?
Answer: five times greater

Question: And the “T cell attachment / resistance to shear-mediated detachment” value [2]?
Answer: increased attachment; also recorded: increased the resistance of T cells to shear-mediated detachment
